Assay results reported in US20040043959A1, “Combination therapies for treating methylthioadenosine phosphorylase deficient cells” (priority 2002, published 2004).

Molecular target: T1, Human MTAP (Homo sapiens, UniProt Q13126)
T1 construct: six-histidine tag (His6) (N); made in house; host or cells: E. coli BL21 DE3
T1 sequence (Q13126 1-283): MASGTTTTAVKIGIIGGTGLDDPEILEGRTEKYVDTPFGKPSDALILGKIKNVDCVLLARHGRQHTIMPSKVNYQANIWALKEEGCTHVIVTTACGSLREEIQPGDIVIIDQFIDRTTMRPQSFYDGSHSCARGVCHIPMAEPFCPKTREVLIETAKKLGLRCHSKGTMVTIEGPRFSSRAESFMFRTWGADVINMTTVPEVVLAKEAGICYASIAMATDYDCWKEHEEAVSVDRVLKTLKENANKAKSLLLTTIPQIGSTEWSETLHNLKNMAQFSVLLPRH
Assay: MTAP substrate assay, coupled spectrophotometric (adenine, xanthine oxidase)
Assay type: biochemical
Conditions: 2 nM MTAP; for activity at 50 µM: 10 min, compound 50 uM, relative to MTA at 50 uM, read-out: MT-A—50: initial velocity as a percentage of the initial velocity with MTA as substrate; for MT-A—10: initial velocity as a percentage of the initial velocity with MTA as substrate: compound 10 uM, relative to MTA at 10 uM
Protocol: An enzymatic assay to determine the activity of MTAP against a given substrate was performed. Human MTAP containing an N-terminal six-histidine tag was expressed in E. coli BL21 DE3 cells. The protein was purified to homogeneity by Ni2+ affinity chromatography. Enzymatic activity was measured using a coupled spectrophotometric assay designed to monitor the reaction product adenine (Savarese, T. M., Crabtree, G. W., and Parks, R. E. Jr., (1980) Biochem. Pharmacol. 30, 189-199). Various concentrations of the indicated 5′-deoxymethylthio adenosine (MTA) or substrate were incubated in assay buffer (40 mM potassium phosphate buffer, 1 mM, and DTT 0.8 units/ml xanthine oxidase coupling enzyme) for 5 minutes at 37° C. The reaction was initiated by the addition of MTAP. The exact concentration of enzyme used varied for each substrate tested and ranged from 2 nM to 500 nM. Activity as a function of enzyme concentration was determined for each substrate tested to ensure that the appropriate enzyme concentration was used. Activity was detected by continuous monitoring of absorbance at 305 nm for 10 minutes (ΔE=15,500 M^−1).
Library compounds (10 and 50 uM) were tested using the assay described above with 2 nM MTAP enzyme. The resultant initial velocities are reported as a percentage of the initial velocity observed when MTA is the substrate. MTA controls, 10 and 50 uM concentrations, were run on each plate alongside the library compounds.

| Compound | activity at 50 µM | MT-A—10: initial velocity as a percentage of the initial velocity with MTA as substrate |
| --- | --- | --- |
| C#CCSc1nnc(SC[C@H]2O[C@@H](n3cnc4c(N)ncnc43)[C@H](O)[C@@H]2O)s1 [2(G)(30), (2R, 3R, 4S, 5S)-2-(6-amino-9H-purin-9-yl)-5-({[5-(prop-2-yn-1-ylthio)-1,3,4-thiodiazol-2-yl]thio}methyl)tetra-hydrofuran-3,4-diol] | 12% | 11% |
| Cn1c(O)nnc1SC[C@H]1O[C@@H](n2cnc3c(N)ncnc32)[C@H](O)[C@@H]1O [2(G)(31), (2R, 3R, 4S, 5S)-2-(6-amino-9H-purin-9-yl)-5-{[(5-hydroxy-4-methyl-4H-1,2,4-triazol-3-yl)-thio]methyl}tetrahydro-furan-3,4-diol] | 50% | 46% |
| Cc1cc(C)n2nc(SC[C@H]3O[C@@H](n4cnc5c(N)ncnc54)[C@H](O)[C@@H]3O)nc2n1 [2(G)(32), (2R, 3R, 4S, 5S)-2-(6-amino-9H-purin-9-yl)-5-{[(5,7-dimethyl[1,2,4]-triazolo[1,5-a]pyrimidin-2-yl)thio]methyl}tetra-hydrofuran-3,4-diol] | 7% | 6% |
| Nc1ncnc2c1ncn2[C@@H]1O[C@H](CSc2nccc(C(F)(F)F)n2)[C@@H](O)[C@H]1O [2(G)(33), (2R, 3R, 4S, 5S)-2-(6-amino-9H-purin-9-yl)-5-({[4-(trifluoromethyl)-pyr-imidin-2-yl]thio}methyl)-tetrahydrofuran-3,4-diol] | 36% | 28% |
| CCOC(=O)c1cnc(SC[C@H]2O[C@@H](n3cnc4c(N)ncnc43)[C@H](O)[C@@H]2O)nc1N [2(G)(36)] | 40% | 35% |
| Nc1ncnc2c1ncn2[C@@H]1O[C@H](CSCC(F)(F)F)[C@@H](O)[C@H]1O [2(G)(38), (2R, 3R, 4S, 5S)-2-(6-amino-9H-purin-9-yl)-5-{[(2,2,2-trifluoroethyl)-thio]methyl}tetrahydro-furan-3,4-diol] | 32% | 30% |
| CC(C)(C)OC(=O)NCCSC[C@H]1O[C@@H](n2cnc3c(N)ncnc32)[C@H](O)[C@@H]1O [2(G)(39), tert-butyl [2-({[(2S, 3S, 4R, 5R)-5-(6-amino-9H-purin-9-yl)-3,4-dihydroxytetrahydro-furan-2-yl]methyl}thio)-ethyl]carbamate] | 8% | 7% |
| Nc1ncnc2c1ncn2[C@@H]1O[C@H](CSc2ncc(C(F)(F)F)cc2Cl)[C@@H](O)[C@H]1O [2(G)(41), (2R, 3R, 4S, 5S)-2-(6-amino-9H-purin-9-yl)-5-({[3-chloro-5-(trifluoromethyl)pyridin-yl]thio}methyl)tetra-hydrofuran-3,4-diol] | 7% | 7% |
| Cc1cc(C)c(C#N)c(SC[C@H]2O[C@@H](n3cnc4c(N)ncnc43)[C@H](O)[C@@H]2O)n1 [2(G)(43), 2-({[(2S, 3S, 4R, 5R)-5-(6-amino-9H-purin-9-yl)-dihydroxytetrahydro-furan-2-yl]methyl}thio)-4,6-dimethylnicotino-nitrile] | 7% | 5% |
| C=CCSC[C@H]1O[C@@H](n2cnc3c(N)ncnc32)[C@H](O)[C@@H]1O [2(G)(44), (2R, 3R, 4S, 5S)-2-(6-amino-9H-purin-9-yl)-5-[(allythio)methyl]tetra-hydrofuran-3,4-diol] | 82% | 77% |
| Cc1cccc2[nH]c(SC[C@H]3O[C@@H](n4cnc5c(N)ncnc54)[C@H](O)[C@@H]3O)nc12 [2(G)(46), (2R, 3R, 4S, 5S)-2-(6-amino-9H-purin-9-yl)-5-{[(4-methyl-1H-benzimidazol-2-yl)-thio]methyl}tetrahydro-furan-3,4-diol] | 45% | 42% |
| Nc1ncnc2c1ncn2[C@@H]1O[C@H](CSc2nc3cnccc3[nH]2)[C@@H](O)[C@H]1O [2(G)(47), (2R, 3R, 4S, 5S)-2-(6-amino-9H-purin-9-yl)-5-[(1H-imidazo[4,5-c]-pyridin-2-ylthio)methyl]-tetrahydrofuran-3,4-diol] | 50% | 49% |
| Nc1ncnc2c1ncn2[C@@H]1O[C@H](CSc2nc(O)c3cn[nH]c3n2)[C@@H](O)[C@H]1O [2(G)(49), (2R, 3R, 4S, 5S)-2-(6-amino-9H-purin-9-yl)-5-{[(4-hydroxy-1H-pyrazolo[3,4-d]pyrimidin-6-yl)thio]methyl}tetra-hydrofuran-3,4-diol] | 46% | 52% |

Next, values leading:

| activity at 50 µM | MT-A—10: initial velocity as a percentage of the initial velocity with MTA as substrate | Compound |
| --- | --- | --- |
| 7% | 6% | CCc1ccccc1SC[C@H]1O[C@@H](n2cnc3c(N)ncnc32)[C@H](O)[C@@H]1O [2(G)(26), (2R, 3R, 4S, 5S)-2-(6-amino-9H-purin-9-yl)-5-{[(2-ethylphenyl)-thio]methyl}tetrahydro-furan-3,4-diol] |
| 23% | 7% | Nc1ncnc2c1ncn2[C@@H]1O[C@H](CSc2ccccc2O)[C@@H](O)[C@H]1O [2(G)(27), (2R, 3R, 4S, 5S)-2-(6-amino-9H-purin-9-yl)-5-{[(2-hydroxyphenyl)-thio]methyl}tetrahydro-furan-3,4-diol] |
| 4% | 6% | Cc1ccc(C)c(SC[C@H]2O[C@@H](n3cnc4c(N)ncnc43)[C@H](O)[C@@H]2O)c1 [2(G)(28)] |
| 19% | 21% | Nc1ncnc2c1ncn2[C@@H]1O[C@H](CSc2cccc(Br)c2)[C@@H](O)[C@H]1O [2(G)(29), (2R, 3R, 4S, 5S)-2-(6-amino-9H-purin-9-yl)-5-{[(3-bromophenyl)-thio]methyl}tetrahydro-furan-3,4-diol] |
| 3% | 2% | Cc1ccc(C(C)(C)C)cc1SC[C@H]1O[C@@H](n2cnc3c(N)ncnc32)[C@H](O)[C@@H]1O [2(G)(34), (2R, 3R, 4S, 5S)-2-(6-amino-9H-purin-9-yl)-5-{[(5-tert-butyl-2-methyl-phenyl)thio]methyl}-tetrahydrofuran-3,4-diol] |
| 11% | 15% | CC(C)c1ccc(SC[C@H]2O[C@@H](n3cnc4c(N)ncnc43)[C@H](O)[C@@H]2O)cc1 [2(G)(35), (2R, 3R, 4S, 5S)-2-(6-amino-9H-purin-9-yl)-5-{[(4-isopropylphenyl)-thio]methyl}tetrahydro-furan-3,4-diol] |
| 26% | 10% | Cc1occc1SC[C@H]1O[C@@H](n2cnc3c(N)ncnc32)[C@H](O)[C@@H]1O [2(G)(37), (2R, 3R, 4S, 5S)-2-(6-amino-9H-purin-9-yl)-5-{[(2-methyl-3-furyl)thio]methyl}tetra-hydrofuran-3,4-diol] |
| 10% | 6% | Cc1cc(=O)oc2cc(SC[C@H]3O[C@@H](n4cnc5c(N)ncnc54)[C@H](O)[C@@H]3O)ccc12 [2(G)(40), 7-({[(2S, 3S, 4R, 5R)-5-(6-amino-9H-purin-9-yl)-3,4-dihydroxytetrahydro-furan-2-yl]methyl}thio)-4-methyl-2H-chromen-2-one] |
| 47% | 38% | Nc1ncnc2c1ncn2[C@@H]1O[C@H](CSc2ccc3ccccc3n2)[C@@H](O)[C@H]1O [2(G)(42), (2R, 3R, 4S, 5S)-2-(6-amino-9H-purin-9-yl)-5-[(quinolin-2-ylthio)methyl]-tetrahydrofuran-3,4-diol] |
| 57% | 53% | CC(C)SC[C@H]1O[C@@H](n2cnc3c(N)ncnc32)[C@H](O)[C@@H]1O [2(G)(45), (2R, 3R, 4S, 5S)-2-(6-amino-9H-purin-9-yl)-5-[(isopropylthio)methyl]-tetrahydrofuran-3,4-diol] |
| 5% | 3% | Cc1ccc2[nH]c(SC[C@H]3O[C@@H](n4cnc5c(N)ncnc54)[C@H](O)[C@@H]3O)nc2c1 [2(G)(48), (2R, 3R, 4S, 5S)-2-(6-amino-9H-purin-9-yl)-5-{[(5-methyl-1H-benzimidazol-2-yl)thio]-methyl}tetrahydro-furan-3,4-diol] |
